Here are results for four molecules from patent US20240116952A1, “KRAS INHIBITOR AND PHARMACEUTICAL USES THEREOF” (RISEN (SUZHOU) PHARMA TECH CO., LTD., priority 2022, published 2024).

For data set [1], the system named is AsPC-1 pancreatic cancer cells. Put plainly: Efficacy study in mouse AsPC-1 CDX model, compounds given orally. The settings on record: BID; for effect on mouse body weight: given orally; for TGI (%): oral, Compound A1 100 mg/kg for 12 days, Compound 1 126 mg/kg (molar equivalent) for 16 days. It counts as in vivo, Balb/C nude mice. How it is done:
(§1) Balb/C nude mice, aged 6-8 weeks, were inoculated subcutaneously with 5×10^6 AsPC-1 pancreatic cancer cells, in 0.1 ml PBS. Eleven days post-inoculation, tumor bearing animals were randomized into Vehicle (four mice), Compound A1 (four mice) and Compound 1 (five mice), followed by oral dosing twice daily at 100 mg/kg for Compound A1 and 126 mg/kg for Compound 1 (Table 6). Tumor volume was measured every three days using a caliper, and tumor size was calculated using the formula TV=length×width^2×0.5. Tumor growth inhibition (TGI) was calculated using the given formula TGI=[1−(Vtx_t−Vtx_0)/(Vct_t−Vct_0)]×100%, where Vtx_t means tumor volume in treatment group measured at time point t, Vtx_0 means tumor volume of treatment group measured at time point 0, Vct_t means tumor volume of vehicle group measured at time point t, and Vct_0 means tumor volume of vehicle group measured at time point 0.

Data set [2] can be described thus: Mouse PK study: blood AUC of compound A1 after oral or intravenous administration. It counts as in vivo. Particulars: ICR mice, equimolar dose. The method, then: A total 126 ICR mice (male, 30-34 g) were randomly divided into 42 groups with 3 animals/group (oral or intravenous administration). Blood samples were collected at 0.167, 0.5, 1, 2, 4, 6, 8, and 24 hours post-dose for oral group and 0.083, 0.25, 0.5, 1, 2, 4, 6, and 8 hours post-dose for intravenous group. The test compounds were dissolved into vehicle solutions (5% DMSO+5% Solutol+90% 20% SBE-β-CD solvents).
Animals were administered with compound A1 or exemplary test compounds by intravenous bolus administration at 3 mg/kg (equimolar dose to compound A1) and oral administration at 10 mg/kg (equimolar dose to compound A1) after fasted 12 hours, respectively. Post-dose blood samples were collected at preset time point (50 μL/animal/time point), and 20 μL blood was accurately separated into 200 μL eppendorf (EP) tube containing acetonitrile and internal standard. The supernatant was prepared by centrifuging the blood samples at approximately 4° C., 12000 rpm for 5 minutes. All samples were then quickly frozen over dry ice and kept at −60° C. or lower until analysis. The supernatant was analyzed by LC-MS/MS to detect the concentration of test compounds and metabolites.

A further data set deals with AsPC-1 cells. Put plainly: Tumor growth inhibition in mouse AsPC-1 CDX model, compounds given parenterally (IP/IV). It counts as in vivo. The settings on record: for TGI (%): 27 days; for tumor growth inhibition compared to vehicle control: FIG. 6. How it is done: as §1
Balb/C nude mice bearing tumors derived from AsPC-1 cells as described previously, were grouped into Vehicle intraperitoneal (IP) (five mice), Compound A1 IP (five mice), Compound A1 intravenous (IV) (three mice), Compound 52 IP (five mice) and Compound 52 IV injections (six mice). All compounds were administered once daily at equal molarity (Compound A1, 6 mg/kg) for 27 days. Tumor volume was measured and calculated as described previously.

Data set [3] concerns GP2D colonrectal cancer cells. It counts as in vivo. Particulars: for TGI (%): 21 days. The method, then:
After Balb/C nude mice (aged 6-8 weeks) were inoculated subcutaneously with 5×10^6 GP2D colonrectal cancer cells, in 0.1 ml PBS, they were grouped 11 days post-inoculation and treated with intraperitoneal injections of the given compounds for 21 days. Note that Compound 52 at 40.3 mg/kg and Compound 53 at 43 mg/kg are molar equivalent to 18 mg/kg of Compound A1. Tumor volume and TGI were measured and calculated as described before (Table 8).
Balb/C nude mice, aged 6-8 weeks, were inoculated subcutaneously with 5×10^6 GP2D colonrectal cancer cells, in 0.1 ml PBS. Eleven days post the inoculation, tumor bearing animals were randomly grouped based on given compounds and vehicle. Compound A1, as positive control, was IP administered at 18 mg/kg qd for 21 days. Compound 52 at 40.3 mg/kg (molar equivalent to 18 mg/kg of Compound A1) was IV administered q3d, and subsequently switched to 27 mg/kg for 21 days. Compound 53 at 43 mg/kg (molar equivalent to 18 mg/kg of Compound A1) was either IV or IP dosed q3d for 21 days (Table 8).

The mark [4] stands for this setting: IP, qd, Compound A1 6 mg/kg, Compound 52 13.44 mg/kg (molar equivalent).
Setting [5] is: IP, qd, Compound A1 18 mg/kg, Compound 52 40.3 mg/kg (molar equivalent).

Structures are written as SMILES. “And” between values parts separate entries of the source, which are not always exact repeats. Equal entries are not always repeated. Where two headings read alike, the source gives them in different places.

For the molecule `C#Cc1c(F)ccc2cc(O)cc(-c3ncc4c(N5CC6CCC(C5)N6C(=O)OC(C)OC(=O)CCC)nc(OC[C@@]56CCCN5C[C@H](F)C6)nc4c3F)c12` (stereo partly drawn) [Compound 1], in data set [1], the “effect on mouse body weight” value was “Neither Compound 1 nor A1 adversely affected mouse body weight”; the “TGI (%)” value was 53.5% and 53.95%.
On to `C#Cc1c(F)ccc2cc(O)cc(-c3ncc4c(N5CC6CCC(C5)N6C(=O)OC(C)OC(=O)CC(C)C)nc(OC[C@@]56CCCN5C[C@H](F)C6)nc4c3F)c12` (stereo partly drawn) [Compound 10], for which the “AUC of A1 increased compared to direct oral administration of A1” value in data set [2] was “more than 8.5 times”.
For the molecule `C#Cc1c(F)ccc2cc(OC(=O)OC(COC(=O)CCCCCCCC)COC(=O)CCCCCCCC)cc(-c3ncc4c(N5CC6CCC(C5)N6)nc(OC[C@@]56CCCN5C[C@H](F)C6)nc4c3F)c12` [Compound 52], the “TGI (%)” value was 36.12% with AsPC-1 cells (setting [4]); 47.22% in the data set on AsPC-1 cells (IV, qd, Compound 52 13.44 mg/kg (molar equivalent to 6 mg/kg A1)); 87.1% in data set [3] (setting [5]); 80.0% in data set [3] (IV, q3d, 27 mg/kg (molar equivalent to 12 mg/kg A1)). Further, the “tumor growth inhibition compared to vehicle control” value in the data set with AsPC-1 cells (intraperitoneal administration) and in the data set with AsPC-1 cells (intravenous injection) was “significant tumor growth inhibition” each time. Further, the “body weight of mice” value in data set [3] (IV 27 mg/kg once every 3 days) is “remained normal”. Besides, the “death of recipient animals” value in data set [3] (intravenously dosed at 40.3 mg/kg (molar equivalent to 18 mg/kg A1)) is 50%. Besides, the “growth inhibition of tumors harboring the KRAS^G12D mutation” value in data set [3] (parenterally administered with the dosages of Table 8) is listed as “significant growth inhibition”.
Turning to `C#Cc1c(F)ccc2cc(O)cc(-c3ncc4c(N5CC6CCC(C5)N6)nc(OC[C@@]56CCCN5C[C@H](F)C6)nc4c3F)c12` [Compound A1, reference compound], the “effect on mouse body weight” value in data set [1] was “Neither Compound 1 nor A1 adversely affected mouse body weight”. Moreover, the “TGI (%)” value stood at 9.07% in data set [1], 37.27% in the data set with AsPC-1 cells (setting [4]) and 85.0% in data set [3] (setting [5]). Further, the “animal death observed (footnote D in TGI column)” value in the data set on AsPC-1 cells (IV, qd, Compound A1 6 mg/kg, 3 mice) is recorded as “caused the death of all mice within 24 hours”. Moreover, the “tumor growth inhibition compared to vehicle control” value in the data set on AsPC-1 cells (intraperitoneal administration) is “significant tumor growth inhibition”.
